In patent US20260071234A1, “METHODS AND COMPOSITIONS FOR HEMATOPOIETIC STEM CELL ENHANCEMENT” (THE REGENTS OF THE UNIVERSITY OF CALIFORNIA, priority 2022, published 2026):

What was measured:
CB HSPCs = experiment: FACS based endocytosis assay, internalized fluorescent dextran in CB HSPCs; format: cell-based, human; details: MYCT1 KD CB HSPCs cultured 5 days; chlorpromazine 10 μM, MbCD 1 mM
Description: (§1) HSPC or endothelial cells transduced with control, MYCT1 KD, or MYCT1 OE lentiviral vectors were incubated with fluorescent dextran (pHrodo Red Dextran, ThermoFisher Scientific P10361) 40 μg/ml for 30 minutes at 37° C. After incubation, cells were immediately placed on ice, washed with ice-cold DPBS with 5% FBS and resuspended into single cell suspension for FACS analysis. 7AAD was included to discriminate dead cells.

E4EC = experiment: FACS based endocytosis assay, internalized fluorescent dextran in E4EC; format: cell-based, human; details: MYCT1 KD E4EC, 10 μM chlorpromazine
Description: as §1

HLF+ HSC = details: day 10 cultures; applicant's analysis of published dataset; cited from earlier work

| Compound | dextran internalization after pre-treatment with endocytosis inhibitor (CB HSPCs) | internalized fluorescent dextran after pre-treatment with endocytosis inhibitor (E4EC) | MYCT1 expression in HLF+ HSC (HLF+ HSC) |
| --- | --- | --- | --- |
| CN(C)CCCN1c2ccccc2Sc2ccc(Cl)cc21 [chlorpromazine] | not sufficient to restore hyperactive endocytosis | dampened the increased endocytosis caused by MYCT1 loss |  |
| Cn1nnc(-c2ccc3c(c2)[nH]c2nc(Cc4ccccc4)nc(NC4CCC(N)CC4)c23)n1 (centres unmarked) [UM171] |  |  | minimal MYCT1 expression |
| methyl-beta-cyclodextrin | not sufficient to restore hyperactive endocytosis |  |  |
| CC(C)n1cnc2c(NCCc3ccc(O)cc3)nc(-c3csc4ccccc34)nc21 [SR1] |  |  | minimal MYCT1 expression |
